# US6440999B1, “Intimal thickening inhibitory agent” (Chugai Seiyaku Kabushiki Kaisha, priority 1995, dated 2002)
# Marks after values point to notes of the source that are not given here.
# Tests used:
# [1] = test system: A7r5 cells derived from the aorta of a rat; test: Inhibition of serum- or PDGF-stimulated proliferation of vascular smooth muscle cells, [3H]-thymidine uptake; assay type: cell-based
# Protocol: In order to assess the inhibitory effect of a compound of the present invention on serum- or PDGF-stimulated proliferation of vascular smooth muscle cells in vitro, the compound obtained in Example 36 was tested using A7r5 cells derived from the aorta of a rat (ATCC-CRL-1444). Further, the effect was compared with that of α-tocopherol which was reported to have an inhibitory effect on proliferation of vascular smooth muscle cells (see J. Biol. Chem., 266, pp. 6188-6194 (1991)).
# Using DMEM medium containing 10% FBS, the cells were placed on 96-well microtiter plates with 5×10^3 cells/0.2 ml/well and then incubated. The medium was exchanged for 2% FBS-containing DMEM medium on the third day and then for 0.2% FBS-containing DMEM medium on the fourth day from the start of the incubation. After 48-hour incubation in the 0.2% FBS-containing DMEM medium, the medium was removed, 0.2 ml of DMEM medium and the test compound were added, and the cells were stimulated with serum (2% FBS) or PDGF (PDGF-BB: human origin, available from Becton Dickinson Labware) (4 ng/ml) to proliferate. The test compound was added to the wells in the form of a solution or suspension in ethanol in amount of 1 μl well to final compound concentrations indicated in Table 2 below and the resultant ethanol concentration of 0.5% in each well. Eight hours after the stimulation, hydroxyurea was added to a final concentration of 1.5 mM to synchronize the cell cycle strictly. After additional 14-hour incubation, the medium containing hydroxyurea was removed and the cells were washed, and DMEM medium, the test compound and the proliferation stimulator were added thereto again. Further, [^3H]-thymidine (1 μCi/well; […]; available from NEN Research) was added. The [^3H]-thymidine uptake in 5 hours was measured as an indication of cell proliferation.
# [2] = test system: rabbit balloon injury models; test: In vivo effect in intimal thickening model (2), rabbit balloon injury
# Protocol: In order to assess the inhibitory effect of the compound of the present invention on intimal thickening in vivo, the compound of Example 36 was tested using rabbit balloon injury models that were different from those used in Test Example 4 in week-age. Further, the effect was compared with that of Probucol which was reported to have an inhibitory effect on intimal thickening in balloon injury models (see Proc. Natl. Acad. Sci., U.S.A., 89, pp 11312-11316 (1992)).
# Cholesterol-fed rabbits in groups of seven (JW: CSK male, 15-week-old) were used to prepare rabbit balloon injury models. Briefly, rabbits were fed with a high cholesterol diet (cholesterol content: 1%) for 2 weeks before balloon treatment. The animals were balloon-treated with a balloon catheter (4 French, available from Baxter) under anesthesia to peel the aortic intima 5 times. The animals were orally administered with the compound which was suspended in a 1% CMC solution (200 mg/kg). On the other hand, control animals were orally administered with a 1% CMC solution without the compound. The administrations were performed once a day from 1 week before the balloon treatment until the day before the dissection for evaluation. In order to evaluate the degree of balloon injury, a balloon-nontreated group (3 animals) was prepared.
# After four weeks from the balloon treatment, specimens were taken from the aorta, stained with Elastica van Geison, and analyzed under an optical microscope. The image was processed to measure the thickness and area of the thickened intima. Averages of the thickness and area were obtained for each individual animal. The animals which died after the operation and those having a serum cholesterol level of 3500 mg/dl or higher were excluded from the measurement. The number of animals used for the evaluation was 4 or 5 per group.
# [3] = test system: A7r5 cells derived from the aorta of a rat; test: Inhibition of serum-stimulated proliferation of vascular smooth muscle cells, acid phosphatase activity; assay type: cell-based; conditions: 48 hours after 2% FBS stimulation, n = 3, mean ± SD; for Acid Phosphatase Activity Absorbance (OD405): control 0.867 ± 0.089
# Protocol: In order to assess the inhibitory effect of the compounds of the present invention on serum-stimulated proliferation of vascular smooth muscle cells in vitro, the compounds of Examples 1, 4, 20, 22, 27, 31, 36, 50, 52, and 58 were tested using A7r5 cells derived from the aorta of a rat (ATCC-CRL-1444).
# Using DMEM medium containing 10% FBS, the cells were placed on 96-well microtiter plates with 5×10^3 cells/0.2 ml/ well and then incubated. The medium was exchanged for 2% FBS-containing DMEM medium on the third day and then for 0.2% FBS-containing DMEM medium on the fourth day from the start of the incubation. After 24-hour incubation in the 0.2% FBS-containing DMEM medium, the test compound was added. Each of the test compounds were added to the wells in the form of a solution or suspension in ethanol in an amount of 1 μl/well to final compound concentrations indicated in Table 3 below and the resultant ethanol concentration of 0.5% in each well. After additional 24-hour incubation, the medium was removed, and 0.2 ml of DMEM medium and the test compound were added thereto again, and the cells were stimulated by serum (2% FBS). Forty-eight hours after the stimulation, the acid phosphatase activity in the wells was measured by means of a kit (Abacus Cell Proliferation Kit, available from Clontech Lab. Inc. CA, U.S.A.) and evaluated as an indication of cell proliferation.
# [4] = test system: rabbit balloon injury models; test: In vivo effect in intimal thickening model (1), rabbit balloon injury
# Protocol: In order to assess the inhibitory effect of the compound of the present invention on intimal thickening in vivo, the compound of Example 36 was tested using rabbit balloon injury models.
# Cholesterol-fed rabbits in groups of eight (JW: CSK male, 11-week-old) were used to prepare rabbit balloon injury models. Briefly, rabbits were fed with a high cholesterol diet (cholesterol content: 1%) for 2 weeks before balloon treatment. The animals were balloon-treated with a balloon catheter (3 French, available from Baxter) under anesthesia to peel the aortic intima 5 times. The animals were orally administered with the compound which was suspended in a 1% carboxymethyl cellulose (CMC) solution (200 mg/kg). On the other hand, control animals were orally administered with a 1% CMC solution without the compound. The administrations were performed once a day from 1 week before the balloon treatment until the day before the dissection for evaluation.
# After four weeks from the balloon treatment, specimens were taken from the aorta, stained with Elastica van Geison, and analyzed under an optical microscope. The image was processed to measure the thickness and area of the thickened intima. Averages of the thickness and area were obtained for each individual animal. The animals which died due to the operation and those having a serum cholesterol level of 3500 mg/dl or higher were excluded from the measurement. The number of animals used for the evaluation was 5 or 6 per group.
# [5] = both intimal thickness and intimal area, 200 mg/kg oral
compound,measurement,setting,value
"CCCCCC1(CCCCC)Cc2c(cc(C(C)(C)C)c(O)c2C(C)(C)C)O1 [Example 36, 4,6-Di-t-butyl-2,2-di-n-pentyl-5-hydroxy-2,3-dihydrobenzofuran]","Count by Liquid Scintillation Counter, FBS Stimulation ([3H]-thymidine uptake)","[1]; 100 μM, 2% FBS, uptake in 5 hours, control 42789 ± 1063, n = 3, mean ± SD",14147 ± 1372 CPM
same,"Count by Liquid Scintillation Counter, PDGF Stimulation ([3H]-thymidine uptake)","[1]; 100 μM, PDGF-BB 4 ng/ml, uptake in 5 hours, control 24517 ± 2370, n = 3, mean ± SD",7881 ± 356 CPM
same,Inhibitory effect compared with α-tocopherol (in words),[1]; [3H]-thymidine uptake,higher than that of α-tocopherol
same,Inhibition of serum- or PDGF-stimulated proliferation of vascular smooth muscle cells (in words),"[1]; [3H]-thymidine uptake, 100 μM",inhibits serum- or PDGF-stimulated proliferation of vascular smooth muscle cells
same,Inhibitory effect on intimal thickening compared with Probucol (in words),[2]; 200 mg/kg oral,higher than that of Probucol
same,Inhibitory effect on intimal thickening (in words),[2]; [5],significant inhibitory effect on intimal thickening
same,Area of Intima,"[2]; cholesterol-fed rabbits, 15-week-old, 200 mg/kg oral once a day, four weeks after balloon treatment, control 1.32 ± 0.22, mean ± SD",0.81 ± 0.22 mm²
same,Thickness of Intima,"[2]; cholesterol-fed rabbits, 15-week-old, 200 mg/kg oral once a day, four weeks after balloon treatment, control 119 ± 19, mean ± SD",76 ± 16 μm
same,Acid Phosphatase Activity Absorbance (OD405),[3]; 10 μM,0.733 ± 0.060
same,Acid Phosphatase Activity Absorbance (OD405),[3]; 100 μM,0.539 ± 0.055
same,activity at 10 µM,"[3]; Rattus norvegicus, A7R5, 10 μM, control 100 ± 10",84 ± 7%
same,activity at 100 µM,"[3]; Rattus norvegicus, A7R5, 100 μM, control 100 ± 10",62 ± 6%
same,Inhibitory effect on intimal thickening (in words),[4]; [5],significant inhibitory effect on intimal thickening
same,Area of Intima,"[4]; cholesterol-fed rabbits, 11-week-old, 200 mg/kg oral once a day, four weeks after balloon treatment, control 0.26 ± 0.03, mean ± SD",0.11 ± 0.08** mm^2
same,Thickness of Intima,"[4]; cholesterol-fed rabbits, 11-week-old, 200 mg/kg oral once a day, four weeks after balloon treatment, control 103 ± 12, mean ± SD",45 ± 31 μm
